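Values below derive from 48-hour exposures of cells grown in 96-well plates, with endpoints linearly interpolated between the two concentrations bracketing the appropriate inhibition level. GI50 marks 50% less growth.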 The source made the active and inactive calls. No stated cut-off is given here; in the data, active = GI50 up to about 1.1 µM and inactive = higher.
How the values were obtained:
Experiment in all cases: NCI-60 cell line screen, 48 h
[1] = tested on: KM12
[2] = tested on: SW-620
[3] = tested on: HT-29
[4] = tested on: SF-539
[5] = tested on: SK-MEL-28
[6] = tested on: ACHN
[7] = tested on: UACC-257
[8] = tested on: EKVX
[9] = tested on: SN12C
[10] = tested on: 786-0
[11] = tested on: LOX IMVI
[12] = tested on: SK-MEL-5
[13] = tested on: OVCAR-8
[14] = tested on: RXF 393
[15] = tested on: UACC-62
[16] = tested on: HOP-92
[17] = tested on: K562
[18] = tested on: TK-10
[19] = tested on: NCI-H226

Measured: GI50

COc1ccc(C2CC(=O)CC(c3ccc(OC)cc3)C23C(=O)NC(=S)NC3=O)cc1 (centres undefined)
inactive: [1] > 100 µM | [2] > 100 µM | [3] > 100 µM | [4] > 100 µM | [5] > 100 µM | [6] > 100 µM | [7] > 100 µM | [8] > 100 µM | [9] > 100 µM | [10] > 100 µM | [11] > 100 µM | [12] > 100 µM | [13] > 100 µM | [14] > 100 µM | [15] > 100 µM | [16] > 100 µM | [17] > 100 µM | [18] > 100 µM | [19] > 100 µM

CC1(C)COC(c2cccc(C(=O)c3ccccc3)c2)=N1
inactive: [1] 44.6 µM | [2] > 100 µM | [3] 33.1 µM | [5] 42.8 µM | [6] 64.4 µM | [7] 26.2 µM | [8] 34.9 µM | [9] 32 µM | [10] 61.1 µM | [11] 38.6 µM | [12] 17.1 µM | [13] 48.5 µM | [15] 41.9 µM | [16] 25.9 µM | [17] 36.2 µM | [18] 90.6 µM

COc1cc(/C=C/C(=O)OCCc2ccccc2)ccc1O
inactive: [1] 14.6 µM | [2] 22.2 µM | [3] 21.3 µM | [4] 18.6 µM | [5] 13.9 µM | [6] 18.5 µM | [7] 18.1 µM | [8] 16.3 µM | [9] 19.8 µM | [10] 15.7 µM | [11] 14.5 µM | [12] 19.5 µM | [13] 28.5 µM | [15] 12.7 µM | [17] 20.1 µM | [18] 15.1 µM

CCCCN1C(=O)NC(Cc2ccccc2)C1=O (centres undefined)
inactive: [1] > 100 µM | [2] > 100 µM | [3] > 100 µM | [4] > 100 µM | [5] > 100 µM | [6] > 100 µM | [7] > 100 µM | [8] > 100 µM | [9] > 100 µM | [11] > 100 µM | [13] > 100 µM | [14] > 100 µM | [18] > 100 µM | [19] > 100 µM

NCCCCC(N)C(=O)N1CCN(c2nc(N3CCCC3)c3nc(Cl)c(NCc4ccccc4)nc3n2)CC1 (centres undefined)
inactive: [1] 21.8 µM | [2] 19.6 µM | [3] 18.9 µM | [4] 18.5 µM | [5] 20.7 µM | [6] 19.1 µM | [7] 18.2 µM | [8] 18.7 µM | [9] 18.4 µM | [10] 17.8 µM | [11] 17.5 µM | [12] 18.1 µM | [13] 14 µM | [14] 15.9 µM | [15] 17.9 µM | [16] 10.3 µM | [17] 21.9 µM | [18] 19.2 µM | [19] 20.8 µM

O=C(N/C(=C\c1ccccc1Cl)c1nc2ccccc2[nH]1)c1ccccc1
inactive: [1] 32.5 µM | [2] 27.5 µM | [3] 24.3 µM | [4] 32.7 µM | [5] 40.9 µM | [6] 30.5 µM | [8] 21.3 µM | [9] 16.7 µM | [10] 32.7 µM | [12] 17.4 µM | [13] 27.5 µM | [14] 27.4 µM | [15] 21.4 µM | [16] 10.3 µM | [17] 24.5 µM | [18] 76.4 µM

CCOC(=O)c1nnsc1NN
inactive: [1] 95.3 µM | [2] > 100 µM | [3] 55.5 µM | [4] > 100 µM | [5] > 100 µM | [6] > 100 µM | [7] > 100 µM | [8] > 100 µM | [9] > 100 µM | [10] 39.3 µM | [11] 30.1 µM | [12] > 100 µM | [13] > 100 µM | [14] > 100 µM | [15] > 100 µM | [16] > 100 µM | [18] > 100 µM | [19] > 100 µM

CC1(C)C2=CCCC(=O)[C@@]2(C)CC[C@@H]1O
inactive: [1] > 100 µM | [2] > 100 µM | [3] > 100 µM | [4] > 100 µM | [5] > 100 µM | [6] > 100 µM | [7] > 100 µM | [8] > 100 µM | [9] > 100 µM | [10] > 100 µM | [11] > 100 µM | [12] > 100 µM | [13] > 100 µM | [14] > 100 µM | [15] > 100 µM | [16] > 100 µM | [17] > 100 µM | [18] > 100 µM | [19] > 100 µM

O=C1/C(=C/c2cccc(Br)c2)Cc2ccccc21
inactive: [1] 19.3 µM | [2] > 100 µM | [3] 45 µM | [4] 41.8 µM | [5] > 100 µM | [6] > 100 µM | [7] 91 µM | [8] 27.7 µM | [9] > 100 µM | [10] > 100 µM | [11] 45.1 µM | [13] 78.9 µM | [15] 54.3 µM | [16] 24.8 µM | [17] 58.9 µM | [18] 63.5 µM | [19] 21.6 µM

N#CCCN(CCC#N)c1ccc(/C=C(\NC(=O)c2cc([N+](=O)[O-])ccc2Cl)C(=O)Nc2ccccc2)cc1
inactive: [1] > 100 µM | [4] 49.7 µM | [5] > 100 µM | [6] 12.2 µM | [8] > 100 µM | [9] > 100 µM | [11] 21.4 µM | [12] > 100 µM | [13] 83.9 µM | [14] > 100 µM | [15] 4.52 µM | [16] > 100 µM | [17] 6.82 µM | [18] 48 µM | [19] 64.9 µM

CC(OC(=O)NCn1cc(-c2ccccc2)nn1)c1ccccc1 (centres undefined)
inactive: [1] 37.7 µM | [2] 58.7 µM | [3] 25.6 µM | [4] 38.9 µM | [5] 97.9 µM | [6] 61.2 µM | [7] 35.1 µM | [8] 63.2 µM | [9] 97.1 µM | [10] 88.7 µM | [11] 75 µM | [12] 17.3 µM | [13] 44.4 µM | [16] 56.2 µM | [17] 31.2 µM | [18] 75.2 µM | [19] 14.9 µM

COC(=O)CCC(=O)Nc1cc(Cl)ccc1Cl
inactive: [1] > 100 µM | [2] > 100 µM | [3] > 100 µM | [4] > 100 µM | [5] > 100 µM | [6] > 100 µM | [7] > 100 µM | [8] > 100 µM | [9] > 100 µM | [10] > 100 µM | [11] > 100 µM | [12] > 100 µM | [13] > 100 µM | [14] 30.2 µM | [15] > 100 µM | [16] > 100 µM | [17] > 100 µM | [18] > 10 µM | [19] > 100 µM

CC(=O)c1c(CO[N+](=O)[O-])[n+]([O-])c2ccccc2[n+]1[O-]
inactive: [2] 63.7 µM | [3] > 100 µM | [4] > 100 µM | [5] 72.1 µM | [6] 61.1 µM | [7] > 100 µM | [8] > 100 µM | [9] 64.1 µM | [10] > 100 µM | [11] 58.5 µM | [12] 68.1 µM | [13] > 100 µM | [15] 35.7 µM | [16] > 100 µM | [17] > 100 µM | [18] > 100 µM | [19] 34.2 µM

CCOc1ccc(/C=C2\N=C(c3ccccc3)OC2=O)cc1
inactive: [1] > 100 µM | [2] > 100 µM | [3] > 100 µM | [4] > 100 µM | [5] > 100 µM | [6] > 100 µM | [7] > 100 µM | [8] > 100 µM | [12] > 100 µM | [13] > 100 µM | [14] > 100 µM | [15] > 100 µM | [16] > 100 µM | [17] > 100 µM | [18] > 100 µM | [19] > 100 µM

Cc1nc(C(N)=S)sc1C(=O)C/C(=N/N)C(=O)Nc1ccc(Cl)cc1
inactive: [1] 77.1 µM | [2] > 100 µM | [3] 58.3 µM | [4] > 100 µM | [5] > 100 µM | [6] 44.6 µM | [7] > 100 µM | [8] 52.8 µM | [9] > 100 µM | [10] 40.6 µM | [11] 82.8 µM | [12] 90.2 µM | [13] 84.1 µM | [14] > 100 µM | [15] > 100 µM | [17] 31.3 µM | [18] > 100 µM | [19] > 100 µM

CC(=O)OCC1OC(n2c(-c3ccc(C)cc3)cc(-c3ccccc3)c(C#N)c2=O)C(OC(C)=O)C(OC(C)=O)C1OC(C)=O (centres undefined)
inactive: [1] > 100 µM | [2] > 100 µM | [3] > 100 µM | [4] > 100 µM | [5] > 100 µM | [6] > 100 µM | [7] > 100 µM | [8] > 100 µM | [9] > 100 µM | [10] > 100 µM | [11] > 100 µM | [12] > 100 µM | [13] > 100 µM | [15] > 100 µM | [16] > 100 µM | [17] > 100 µM | [18] > 100 µM | [19] > 100 µM
